Measured values from ChEMBL document CHEMBL4765252, “Design, synthesis, and biological evaluation of novel 4H-chromen-4-one derivatives as antituberculosis agents against multidrug-resistant tuberculosis” (Eur J Med Chem, 2020).
Converted amounts (≈) assume the structure as drawn.

What was measured:
Format in all cases: functional
[1] = tested on: Mycobacterium tuberculosis; assay: Antitubercular activity against isoniazid, rifampicin, fluoroquinolones-resistant Mycobacterium tuberculosis assessed as inhibition of bacterial growth incubated for 6 days by MABA assay; conditions: 144 h, time 6 day
[2] = tested on: Mycobacterium tuberculosis; assay: Antitubercular activity against INH, SM, RFP, EMB, RBT, PAS, OLFX-resistant Mycobacterium tuberculosis 13946 assessed as inhibition of bacterial growth
[3] = tested on: Mycobacterium tuberculosis; assay: Antitubercular activity against INH, SM, RFP, EMB, PAS, Prothionamide 1321, Capreomycin-resistant Mycobacterium tuberculosis 14862 assessed as inhibition of bacterial growth

Row | SMILES | MIC [1] [µM] | MIC [2] [µg/mL] | MIC [3] [µg/mL]
1 | CCOC(=O)c1c(NC(=O)c2c(F)c(F)c(F)c(F)c2F)sc2c1CCN(CC)C2 | 0.2 (≈ 0.0897 µg/mL) | – | –
2 | CO[C@H]1/C=C/O[C@@]2(C)Oc3c(C)c(O)c4c(O)c(c(/C=N/N5CCN(C)CC5)c(O)c4c3C2=O)NC(=O)/C(C)=C\C=C\[C@H](C)[C@H](O)[C@@H](C)[C@@H](O)[C@@H](C)[C@H](OC(C)=O)[C@@H]1C [RIFAMPIN] | – | > 10 | > 10
3 | O=c1cc(-c2ccc(O)cc2)oc2ccc(O)c(CN3CCC3)c12 | – | 1.76 (≈ 5.43 µM) | 1.64 (≈ 5.08 µM)
4 | O=c1cc(-c2ccc(O)cc2)oc2ccc(O)c(CN3CCCC3)c12 | – | 3.81 (≈ 11.3 µM) | 3.82 (≈ 11.3 µM)
5 | NNC(=O)c1ccncc1 [ISONIAZID] | – | 2.38 (≈ 17.3 µM) | > 10
